One experiment has as its target T1, hP2X3 (Homo sapiens, UniProt P56373).
T1 construct: expressed in transfected cells
T1 sequence (P56373 1-397): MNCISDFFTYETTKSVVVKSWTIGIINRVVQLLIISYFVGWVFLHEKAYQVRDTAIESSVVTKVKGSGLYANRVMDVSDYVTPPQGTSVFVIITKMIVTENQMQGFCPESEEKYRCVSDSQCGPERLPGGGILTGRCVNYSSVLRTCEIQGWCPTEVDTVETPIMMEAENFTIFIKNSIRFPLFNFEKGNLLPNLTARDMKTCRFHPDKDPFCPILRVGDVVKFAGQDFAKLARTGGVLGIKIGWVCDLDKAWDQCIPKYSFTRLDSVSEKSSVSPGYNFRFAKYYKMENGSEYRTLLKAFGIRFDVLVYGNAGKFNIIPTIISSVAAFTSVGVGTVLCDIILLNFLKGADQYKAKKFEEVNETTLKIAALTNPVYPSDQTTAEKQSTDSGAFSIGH
Put plainly: Calcium uptake assay (Ca influx), P2X antagonist assay, P2X3 homomer. The format is cell-based. As to conditions: inhibition of agonist-induced calcium influx. The text has this: (§1) Human P2X3 (Accession no. NM_002559), P2X2 (Accession no. NM_170682) and Rat P2X3 (Accession no. NM_031075) and P2X2 (Accession no. NM_053656) are cloned into a mammalian expression vector (e.g., pcDNAS/TO or pcDNA3 Invitrogen). The human P2X2/3 chimera clone is created as described by Neelands et al, and then cloned into an expression vector as above. Receptors are expressed in cells (e.g., HEK293 or 1321N1 (obtained from the ECACC)) via transient transfection using standard lipid mediated transfection, or by creation of stable transfectants for each receptor. For expression of the P2X2/3 heteromeric receptor, the P2X3 expression vector is stably transfected into a cell line already stably expressing P2X2. P2X2/3 heteromer function is isolated using pharmacological methods. Cell lines are maintained in DMEM+5% Glutamax, the appropriate level of selective antibiotic, and 10% heat inactivated FBS.
(§2) Functional activity of compounds at the P2X receptor is determined by measuring their ability to inhibit agonist-induced calcium influx. Compounds are tested for antagonist activity against the P2X2/3 chimera, the P2X3 homomer, or the P2X2/3 heteromer. At the start of each screening day, the agonist EC50 is determined. Compound % inhibition or IC50s are subsequently determined using a predetermined agonist concentration (EC50-90 depending on cell line) as a stimulus. The agonists used are αβMeATP, ATP, or other ATP analogs. Compounds may be tested at concentrations ranging from 1 pM to 10 μM.
(§3) To test for antagonist activity, cells expressing the appropriate receptor are seeded onto 96 or 384 well plates 18-24 hours prior to assay. On the day of the assay, cells are loaded with calcium-sensitive fluorescent dye (e.g., Fluo-4 no wash reagent-Invitrogen cat#F36206, or the BD™ PBX Calcium Assay Kit-BD cat #640175) in Hank's Buffered Salt Solution (HBSS) with up to 10 mM supplemental CaCl2. Plates are incubated at 37° C. and then equilibrated at room temperature. Antagonism of agonist-induced calcium influx is measured using a fluorescent imaging plate reader (e.g. FLIPR^TETRA, Molecular Devices, Sunnyvale, Calif.). The assay comprises two stages: a pre-treatment phase followed by a treatment phase. Compounds may be tested as follows: For the pre-treatment phase, 50 μL of 3× concentration of test compound in HBSS is added to cells containing 100 μL of dye loading media to achieve a final concentration of 1× test compound. For the treatment phase, at a set interval after pre-treatment (1-30 minutes), 50 μL of 1× test compound plus 4× agonist solution is added, resulting in a final concentration of 1× compound and 1× agonist. Fluorescence is measured at 0.1-3 second intervals—with an excitation wavelength of 494 nm and an emission wavelength of 515 nm. Responses are measured as (peak fluorescence after agonist addition) minus (baseline fluorescence prior to treatment). Percent inhibition is calculated as follows:
(§4) [formula] IC50 values are determined by analyzing dose response data in a 4 parameter logistic fit using GraphPad Prizm.
(§5) The following compounds have been or can be prepared according to the synthetic methods described herein. A calcium uptake assay was performed as described above and the activity of each compound is expressed as follows: […]

A further experiment addresses T2, hP2X2/3H (Homo sapiens, UniProt P56373+Q9UBL9).
T2 construct: expressed in transfected cells
T2 sequence (P56373 1-397): T1 sequence (P56373 1-397)
T2 sequence (Q9UBL9 1-471): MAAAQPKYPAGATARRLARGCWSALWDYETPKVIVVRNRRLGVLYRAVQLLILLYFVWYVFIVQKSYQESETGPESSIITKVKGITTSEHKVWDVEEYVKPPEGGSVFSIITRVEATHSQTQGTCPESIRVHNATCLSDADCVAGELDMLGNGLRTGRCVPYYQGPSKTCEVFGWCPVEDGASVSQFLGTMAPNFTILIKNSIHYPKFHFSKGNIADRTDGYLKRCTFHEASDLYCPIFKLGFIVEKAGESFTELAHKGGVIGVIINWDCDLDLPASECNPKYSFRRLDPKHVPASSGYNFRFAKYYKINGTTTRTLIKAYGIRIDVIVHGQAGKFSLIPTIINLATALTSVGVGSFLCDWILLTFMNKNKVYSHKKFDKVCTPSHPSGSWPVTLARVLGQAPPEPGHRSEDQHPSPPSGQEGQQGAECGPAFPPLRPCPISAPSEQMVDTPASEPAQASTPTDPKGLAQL
Put plainly: Calcium uptake assay (Ca influx), P2X antagonist assay, P2X2/3 heteromer. As to conditions: inhibition of agonist-induced calcium influx. The format is cell-based.
Text: as §1, §2, §3, §4, §5

SMILES strings stand for the structures.

As to `Cc1ccc(-c2cc(C(=O)NCc3cnc(C)nc3)cc(-c3ncccn3)c2)cc1` [Compound 2, 4′-Methyl-5-pyrimidin-2-yl-biphenyl-3-carboxylic acid (2-methyl-pyrimidin-5-ylmethyl)-amide], the IC50 at hP2X3 worked out at 78.5 nM; on hP2X2/3H, 407 nM.
On to `COCC(CO)NC(=O)c1cc(-c2ccc(C)cn2)cc(-c2cc(C)ccc2C#N)c1` (centres unmarked) [Compound 74, 2′-Cyano-5′-methyl-5-(5-methyl-pyridin-2-yl)-biphenyl-3-carboxylic acid (2-hydroxy-1-methoxymethyl-ethyl)-amide], for which the results for the concentration for half-maximal inhibition (IC50) at hP2X3 and on hP2X2/3H were 138 nM and 5580 nM, respectively.
Consider `Cc1ccc(-c2cc(C(=O)NCc3cnc(C)nc3)cc(N3CCNCC3=O)c2)c(C#N)c1` [Compound 66, 2′-Cyano-4′-methyl-5-(2-oxo-piperazin-1-yl)-biphenyl-3-carboxylic acid (2-methyl-pyrimidin-5-ylmethyl)-amide], for which the half-inhibitory concentration (IC50) was determined as 85.8 nM at hP2X3 and 729 nM at hP2X2/3H.
The like results for `Cc1ccc(-c2cc(C(=O)N[C@@H](C)CO)cc(-c3cccc(F)c3F)c2)c(C#N)c1` [Compound 85, 2-Cyano-2″,3″-difluoro-4-methyl-[1,1′;3′,1″]terphenyl-5′-carboxylic acid ((S)-2-hydroxy-1-methyl-ethyl)-amide] were, in that order, 31.9 nM and 1360 nM.
Take `Cc1ccc(-c2cc(C(=O)NCc3ccc(C)nc3)cc(-c3ccc(F)cc3F)c2)cc1` [Compound 5, 2″,4″-Difluoro-4-methyl-[1,1′;3′,1″]terphenyl-5′-carboxylic acid (6-methyl-pyridin-3-ylmethyl)-amide]: the figures for the IC50 on hP2X3 and at hP2X2/3H were 1960 nM and 8310 nM, respectively.
As to `COc1ccc(-c2cc(C(=O)NCc3ccc(C)nc3)cc(-c3ccc(C)cc3)c2)cc1OC` [Compound 10, 3″,4″-Dimethoxy-4-methyl-[1,1′;3′,1″]terphenyl-5′-carboxylic acid (6-methyl-pyridin-3-ylmethyl)-amide], the IC50 amounted to 759 nM on hP2X3 and 1270 nM at hP2X2/3H.
Take `Cc1ccc(-c2cc(C(=O)N[C@H](C)c3cnc(C)nc3)cc(-c3ccccc3C#N)c2)nc1` [Compound 31, 2′-Cyano-5-(5-methyl-pyridin-2-yl)-biphenyl-3-carboxylic acid [(R)-1-(2-methyl-pyrimidin-5-yl)-ethyl]-amide]: the IC50 at hP2X3 worked out at 14.2 nM; on hP2X2/3H, 17.6 nM.
`Cc1ccc(-c2cc(C(=O)N[C@H](C)CN3CCOCC3)cc(-c3cc(C)ccc3C#N)c2)nc1` [Compound 73, 2′-Cyano-5′-methyl-5-(5-methyl-pyridin-2-yl)-biphenyl-3-carboxylic acid ((R)-1-methyl-2-morpholin-4-yl-ethyl)-amide]: the IC50 at hP2X3 turned out to be 104 nM; on hP2X2/3H, 340 nM.
For `Cc1ccc(-c2cc(C(=O)N[C@H](C)c3cnc(C)nc3)cc(-c3ccccc3CO)c2)nc1` [Compound 34, 2′-Hydroxymethyl-5-(5-methyl-pyridin-2-yl)-biphenyl-3-carboxylic acid [(R)-1-(2-methyl-pyrimidin-5-yl)-ethyl]-amide] the same measures were 21.1 nM and 18.4 nM.
With `Cc1ccc(-c2cc(C(=O)N[C@H](C)c3cnc(C)nc3)cc(N3CCCC3=O)c2)nc1` [Compound 58, (R)-3-(5-Methylpyridin-2-yl)-N-(1-(2-methylpyrimidin-5-yl)ethyl)-5-(2-oxopyrrolidin-1-yl)benzamide], the concentration for half-maximal inhibition (IC50) on hP2X3 worked out at 35.3 nM; at hP2X2/3H, 194 nM.
Turning to `Cc1ccc(-c2cc(C(=O)N[C@H](C)c3ccc(C)nc3)cc(N3CCCCC3=O)c2)cc1` [Compound 40, (R)-4′-Methyl-N-(1-(6-methylpyridin-3-yl)ethyl)-5-(2-oxopiperidin-1-yl)biphenyl-3-carboxamide], the figures for the IC50 at hP2X3 and at hP2X2/3H were 26.3 nM and 52.7 nM, respectively.
Consider `Cc1ccc(-c2cc(C(=O)NCc3ccc(C)nc3)cc(N3CCC[C@H]3CO)c2)cc1` [Compound 59, (S)-5-(2-(Hydroxymethyl)pyrrolidin-1-yl)-4′-methyl-N-((6-methylpyridin-3-yl)methyl)biphenyl-3-carboxamide], for which the results for the half-maximal inhibitory concentration (IC50) on hP2X3 and at hP2X2/3H were 65.8 nM and 127 nM, respectively.
For `COc1ncc(-c2cc(C(=O)NCc3ccc(C)nc3)cc(-c3ccc(C)cn3)c2)cn1` [Compound 16, 3-(2-Methoxy-pyrimidin-5-yl)-5-(5-methyl-pyridin-2-yl)-N-(6-methyl-pyridin-3-ylmethyl)-benzamide], the half-inhibitory concentration (IC50) on hP2X3 is 95.6 nM; at hP2X2/3H it was 269 nM.
For `Cc1ccc(-c2cc(C(=O)NCc3ccc(C)nc3)cc(N3CCCCC3=O)c2)cc1` [Compound 37, 4′-Methyl-N-((6-methylpyridin-3-yl)methyl)-5-(2-oxopiperidin-1-yl)biphenyl-3-carboxamide], the IC50 at hP2X3 worked out at 48.6 nM; on hP2X2/3H it was 122 nM.
For `COCc1ccccc1-c1cc(C(=O)N[C@H](C)c2cnc(C)nc2)cc(-c2ccc(C)cn2)c1` [Compound 45, 2′-Methoxymethyl-5-(5-methyl-pyridin-2-yl)-biphenyl-3-carboxylic acid [(R)-1-(2-methyl-pyrimidin-5-yl)-ethyl]-amide] the same measures were 14.6 nM and 13.4 nM.
The like results for `COCc1ccccc1-c1cc(C(=O)N[C@H](C)c2cnc(C)nc2)cc(-c2ccccn2)c1` [Compound 53, 2′-Methoxymethyl-5-pyridin-2-yl-biphenyl-3-carboxylic acid [(R)-1-(2-methyl-pyrimidin-5-yl)-ethyl]-amide] were, in that order, 62.6 nM and 295 nM.
Take `Cc1ccc(-c2cc(C(=O)N[C@H](C)c3cnc(C)nc3)cc(N3CCCCC3=O)c2)cc1` [Compound 39, (R)-4′-Methyl-N-(1-(2-methylpyrimidin-5-yl)ethyl)-5-(2-oxopiperidin-1-yl)biphenyl-3-carboxamide]: the IC50 on hP2X3 was found to be 38.8 nM; on hP2X2/3H, 82 nM.
For `Cc1ccc(-c2cc(C(=O)NCc3ccc(C)nc3)cc(-c3ccc(C)cc3C#N)c2)nc1` [Compound 35, 2′-Cyano-4′-methyl-5-(5-methyl-pyridin-2-yl)-biphenyl-3-carboxylic acid (6-methyl-pyridin-3-ylmethyl)-amide] the same measures were 50.8 nM and 35.6 nM.
For `Cc1ccc(-c2cc(C(=O)N[C@@H](C)CO)cc(-c3cc(C(F)(F)F)ccc3C#N)c2)nc1` [Compound 79, 2′-Cyano-5-(5-methyl-pyridin-2-yl)-5′-trifluoromethyl-biphenyl-3-carboxylic acid ((S)-2-hydroxy-1-methyl-ethyl)-amide] the same measures were 71.8 nM and 444 nM.

Source of the values: patent publication US9133122B2, “Amide compounds, compositions and uses thereof” (EVOTEC AG, priority 2008, dated 2015).
